Reference: PubChem BioAssay AID1963844 (Molecular Pharmacology Branch, DTP, NCI, 2024)

Test system: 422866-222-R5-J1-PDC complex spheroid viability
Assay: Anticancer human tumor 422866-222-R5-J1-PDC patient-derived pancreatic adenocarcinoma cell line growth inhibition [POLQ]
Conditions: for IC50: curve of first compound; for viability, T/C: stronger effect = lower value
Method in brief: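 PDC + HUVEC + MSC complex spheroids; POLQ inhibitors ± partner drugs; top conc. at/near clinical Cmax, else 10 microM (SN-38 1 microM), half-log dilutions; 37 degrees C, 5% CO2.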

[1] = second compound 0.0316 µM, first compound 0.0316 µM
[2] = second compound 0.0316 µM, first compound 0.1 µM
[3] = second compound 0.0316 µM, first compound 0.316 µM
[4] = second compound 0.0316 µM, first compound 1 µM
[5] = second compound 0.0316 µM, first compound 3.16 µM
[6] = second compound 0.0316 µM, first compound 10 µM
[7] = second compound 0.1 µM, first compound 0.0316 µM
[8] = second compound 0.1 µM, first compound 0.1 µM
[9] = second compound 0.1 µM, first compound 0.316 µM
[10] = second compound 0.1 µM, first compound 1 µM
[11] = second compound 0.1 µM, first compound 3.16 µM
[12] = second compound 0.1 µM, first compound 10 µM
[13] = second compound 0.316 µM, first compound 0.0316 µM
[14] = second compound 0.316 µM, first compound 0.1 µM
[15] = second compound 0.316 µM, first compound 0.316 µM
[16] = second compound 0.316 µM, first compound 1 µM
[17] = second compound 0.316 µM, first compound 3.16 µM
[18] = second compound 0.316 µM, first compound 10 µM
[19] = second compound 1 µM, first compound 0.0316 µM
[20] = second compound 1 µM, first compound 0.1 µM
[21] = second compound 1 µM, first compound 0.316 µM
[22] = second compound 1 µM, first compound 1 µM
[23] = second compound 1 µM, first compound 3.16 µM
[24] = second compound 1 µM, first compound 10 µM
[25] = second compound 3.16 µM, first compound 0.0316 µM
[26] = second compound 3.16 µM, first compound 0.1 µM
[27] = second compound 3.16 µM, first compound 0.316 µM
[28] = second compound 3.16 µM, first compound 1 µM
[29] = second compound 3.16 µM, first compound 3.16 µM
[30] = second compound 3.16 µM, first compound 10 µM
[31] = second compound 10 µM, first compound 0.0316 µM
[32] = second compound 10 µM, first compound 0.1 µM
[33] = second compound 10 µM, first compound 0.316 µM
[34] = second compound 10 µM, first compound 1 µM
[35] = second compound 10 µM, first compound 3.16 µM
[36] = second compound 10 µM, first compound 10 µM
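Note: spheroids exposed to compounds for one week before readout.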
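Throughout, for viability, T/C: percent of DMSO vehicle wells luminescence so 100% = untreated viability.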

`O=C(Nc1ccc(O)c(NS(=O)(=O)c2ccc(F)cc2)c1)c1ccc(-c2ccccc2)cc1` + COC1C(OC(N)=O)C(O)C(Oc2ccc3c(O)c(NC(=O)c4ccc(O)c(CC=C(C)C)c4)c(=O)oc3c2C)OC1(C)C gave an IC50 (second compound 0.0316 µM) greater than 10000 nM, an IC50 (second compound 0.1 µM) greater than 10000 nM and an IC50 (second compound 0.316 µM) greater than 10000 nM. It also gave an IC50 (second compound 1 µM) greater than 10000 nM, an IC50 (second compound 3.16 µM) greater than 10000 nM and an IC50 (second compound 10 µM) greater than 10000 nM. The viability, T/C [1] was 99.6%, the viability, T/C [2] was 101% and the viability, T/C [3] was 77.7%. The viability, T/C [4] was 94.6%, the viability, T/C [5] was 96.1% and the viability, T/C [6] was 126%. The viability, T/C [7] was 92.2%, the viability, T/C [8] was 87.3% and the viability, T/C [9] was 83.3%. For the same molecule, the viability, T/C [10] was 95.2%, the viability, T/C [11] was 88.8% and the viability, T/C [12] was 133%. The viability, T/C [13] was 92.4%, the viability, T/C [14] was 88% and the viability, T/C [15] was 84%. For the same molecule, the viability, T/C [16] was 99.5%, the viability, T/C [17] was 93% and the viability, T/C [18] was 123%. It also gave a viability, T/C [19] of 106%, a viability, T/C [20] of 95% and a viability, T/C [21] of 83.7%. For the same molecule, the viability, T/C [22] was 84.9%, the viability, T/C [23] was 97.7% and the viability, T/C [24] was 125%. For the same molecule, the viability, T/C [25] was 93.8%, the viability, T/C [26] was 100% and the viability, T/C [27] was 103%. The viability, T/C [28] was 89.2%, the viability, T/C [29] was 103% and the viability, T/C [30] was 124%. It also gave a viability, T/C [31] of 95.8%, a viability, T/C [32] of 80.9% and a viability, T/C [33] of 87.4%. It also gave a viability, T/C [34] of 85%, a viability, T/C [35] of 96.4% and a viability, T/C [36] of 133%.

With `CC(=O)O[C@H]1C(=O)[C@@]2(C)[C@H]([C@H](OC(=O)c3ccccc3)[C@]3(O)C[C@H](OC(=O)[C@H](O)[C@@H](NC(=O)c4ccccc4)c4ccccc4)C(C)=C1C3(C)C)[C@]1(OC(C)=O)CO[C@@H]1C[C@@H]2O` + Cc1cccc(N(C)C(=O)C2C(O)CCN2c2nc(C)cc(C(F)(F)F)c2C#N)c1 the IC50 (second compound 0.0316 µM) was less than 9.49 nM, the IC50 (second compound 0.1 µM) was greater than 3000 nM and the IC50 (second compound 0.316 µM) was greater than 3000 nM. For the same molecule, the IC50 (second compound 1 µM) was less than 9.49 nM, the IC50 (second compound 3.16 µM) was greater than 3000 nM and the IC50 (second compound 10 µM) was less than 9.49 nM. It also gave a viability, T/C (second compound 0.0316 µM, first compound 0.00949 µM) of 48.8%, a viability, T/C (second compound 0.0316 µM, first compound 0.03 µM) of 47.8% and a viability, T/C (second compound 0.0316 µM, first compound 0.0949 µM) of 44.6%. For the same molecule, the viability, T/C (second compound 0.0316 µM, first compound 0.3 µM) was 53%, the viability, T/C (second compound 0.0316 µM, first compound 0.949 µM) was 52.6% and the viability, T/C (second compound 0.0316 µM, first compound 3 µM) was 56%. It also gave a viability, T/C (second compound 0.1 µM, first compound 0.00949 µM) of 54%, a viability, T/C (second compound 0.1 µM, first compound 0.03 µM) of 47.9% and a viability, T/C (second compound 0.1 µM, first compound 0.0949 µM) of 58.1%. For the same molecule, the viability, T/C (second compound 0.1 µM, first compound 0.3 µM) was 50.2%, the viability, T/C (second compound 0.1 µM, first compound 0.949 µM) was 49.4% and the viability, T/C (second compound 0.1 µM, first compound 3 µM) was 52.6%. For the same molecule, the viability, T/C (second compound 0.316 µM, first compound 0.00949 µM) was 54%, the viability, T/C (second compound 0.316 µM, first compound 0.03 µM) was 51.9% and the viability, T/C (second compound 0.316 µM, first compound 0.0949 µM) was 55.2%. The viability, T/C (second compound 0.316 µM, first compound 0.3 µM) was 46.3%, the viability, T/C (second compound 0.316 µM, first compound 0.949 µM) was 52.3% and the viability, T/C (second compound 0.316 µM, first compound 3 µM) was 56.6%. For the same molecule, the viability, T/C (second compound 1 µM, first compound 0.00949 µM) was 49.8%, the viability, T/C (second compound 1 µM, first compound 0.03 µM) was 41.3% and the viability, T/C (second compound 1 µM, first compound 0.0949 µM) was 51.9%. It also gave a viability, T/C (second compound 1 µM, first compound 0.3 µM) of 55.6%, a viability, T/C (second compound 1 µM, first compound 0.949 µM) of 50.9% and a viability, T/C (second compound 1 µM, first compound 3 µM) of 59.8%. For the same molecule, the viability, T/C (second compound 3.16 µM, first compound 0.00949 µM) was 57.5%, the viability, T/C (second compound 3.16 µM, first compound 0.03 µM) was 46.9% and the viability, T/C (second compound 3.16 µM, first compound 0.0949 µM) was 59.7%. The viability, T/C (second compound 3.16 µM, first compound 0.3 µM) was 49.8%, the viability, T/C (second compound 3.16 µM, first compound 0.949 µM) was 57.8% and the viability, T/C (second compound 3.16 µM, first compound 3 µM) was 67.8%. The viability, T/C (second compound 10 µM, first compound 0.00949 µM) was 47.7%, the viability, T/C (second compound 10 µM, first compound 0.03 µM) was 48% and the viability, T/C (second compound 10 µM, first compound 0.0949 µM) was 42.9%. For the same molecule, the viability, T/C (second compound 10 µM, first compound 0.3 µM) was 51.6%, the viability, T/C (second compound 10 µM, first compound 0.949 µM) was 64.9% and the viability, T/C (second compound 10 µM, first compound 3 µM) was 68.3%.

In the case of `COc1cccc2c1C(=O)c1c(O)c3c(c(O)c1C2=O)CC(O)(C(=O)CO)CC3OC1CC(N)C(O)C(C)O1` (stereo unspecified) + Cc1cccc(N(C)C(=O)C2C(O)CCN2c2nc(C)cc(C(F)(F)F)c2C#N)c1, the IC50 (second compound 0.0316 µM) is reported as 160 nM, the IC50 (second compound 0.1 µM) is reported as 114 nM and the IC50 (second compound 0.316 µM) is reported as 152 nM. It also gave an IC50 (second compound 1 µM) of 202 nM, an IC50 (second compound 3.16 µM) of 204 nM and an IC50 (second compound 10 µM) of 133 nM. It also gave a viability, T/C [1] of 67.2%, a viability, T/C [2] of 56.3% and a viability, T/C [3] of 41.4%. It also gave a viability, T/C [4] of 24.5%, a viability, T/C [5] of 32.9% and a viability, T/C [6] of 30.1%. For the same molecule, the viability, T/C [7] was 66.6%, the viability, T/C [8] was 51.3% and the viability, T/C [9] was 37%. The viability, T/C [10] was 22.6%, the viability, T/C [11] was 27.4% and the viability, T/C [12] was 34.4%. It also gave a viability, T/C [13] of 57.6%, a viability, T/C [14] of 56.7% and a viability, T/C [15] of 37.3%. The viability, T/C [16] was 25.6%, the viability, T/C [17] was 26.2% and the viability, T/C [18] was 36.4%. It also gave a viability, T/C [19] of 65.5%, a viability, T/C [20] of 60.8% and a viability, T/C [21] of 42.4%. The viability, T/C [22] was 24.5%, the viability, T/C [23] was 28.6% and the viability, T/C [24] was 36.6%. It also gave a viability, T/C [25] of 62.3%, a viability, T/C [26] of 58.5% and a viability, T/C [27] of 44.3%. It also gave a viability, T/C [28] of 30.1%, a viability, T/C [29] of 30.2% and a viability, T/C [30] of 36.2%. The viability, T/C [31] was 68.2%, the viability, T/C [32] was 53% and the viability, T/C [33] was 40.5%. For the same molecule, the viability, T/C [34] was 25.9%, the viability, T/C [35] was 24.1% and the viability, T/C [36] was 40.2%.
